# From PubChem BioAssay (NCI)
#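 96-well plates; 48 h exposure; 5 concentrations. Endpoints by linear interpolation between flanking doses. Not reached: highest tested concentration assigned. At the TGI there is no net growth.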
# Assays:
# Test in all cases: NCI anticancer screen, dose series, 48 h
# HOP-62 NSCLC = test system: HOP-62 NSCLC
# OVCAR-4 ovarian = test system: OVCAR-4 ovarian
# NCI-H23 lung = test system: NCI-H23 lung
# HCT-116 colon = test system: HCT-116 colon
# UACC-257 melanoma = test system: UACC-257 melanoma
# SK-MEL-2 melanoma = test system: SK-MEL-2 melanoma
# DU-145 prostate = test system: DU-145 prostate
# UO-31 renal = test system: UO-31 renal
# RPMI-8226 leukemia = test system: RPMI-8226 leukemia
# MDA-N = test system: MDA-N
# OVCAR-8 ovarian = test system: OVCAR-8 ovarian
# HT29 colon = test system: HT29 colon
# SR leukemia = test system: SR leukemia
# CCRF-CEM leukemia = test system: CCRF-CEM leukemia
# OVCAR-3 ovarian = test system: OVCAR-3 ovarian
# HCT-15 colon = test system: HCT-15 colon
# OVCAR-5 ovarian = test system: OVCAR-5 ovarian
# T-47D breast = test system: T-47D breast
# MOLT-4 leukemia = test system: MOLT-4 leukemia
# IGROV1 ovarian = test system: IGROV1 ovarian
# SK-MEL-28 melanoma = test system: SK-MEL-28 melanoma
# HCC-2998 colon = test system: HCC-2998 colon
# A549 NSCLC = test system: A549 NSCLC
# RXF 393 renal = test system: RXF 393 renal
# BT-549 breast = test system: BT-549 breast
# COLO 205 colon = test system: COLO 205 colon
# MDA-MB-231 breast = test system: MDA-MB-231 breast
# NCI/ADR-RES ovarian = test system: NCI/ADR-RES ovarian
# NCI-H522 lung = test system: NCI-H522 lung
# EKVX NSCLC = test system: EKVX NSCLC
# HL-60(TB) leukemia = test system: HL-60(TB) leukemia
# UACC-62 melanoma = test system: UACC-62 melanoma
# SNB-75 CNS = test system: SNB-75 CNS
# NCI-H460 lung = test system: NCI-H460 lung
# SK-MEL-5 melanoma = test system: SK-MEL-5 melanoma
# SF-539 CNS = test system: SF-539 CNS
# LOX IMVI melanoma = test system: LOX IMVI melanoma
# U251 CNS = test system: U251 CNS
# ACHN renal = test system: ACHN renal
# SF-268 CNS = test system: SF-268 CNS
# CAKI-1 renal = test system: CAKI-1 renal
# MDA-MB-435 = test system: MDA-MB-435
# SF-295 CNS = test system: SF-295 CNS
# HOP-92 NSCLC = test system: HOP-92 NSCLC
# HS 578T breast = test system: HS 578T breast
# NCI-H226 lung = test system: NCI-H226 lung
# MALME-3M melanoma = test system: MALME-3M melanoma
# MCF7 breast = test system: MCF7 breast
# KM12 colon = test system: KM12 colon
# M14 melanoma = test system: M14 melanoma
# SN12C renal = test system: SN12C renal
# PC-3 prostate = test system: PC-3 prostate
# SK-OV-3 ovarian = test system: SK-OV-3 ovarian
# SNB-19 CNS = test system: SNB-19 CNS
# 786-0 renal = test system: 786-0 renal
# SW-620 colon = test system: SW-620 colon
# K-562 leukemia = test system: K-562 leukemia
# TK-10 renal = test system: TK-10 renal
# A498 renal = test system: A498 renal
compound,measurement,setting,value
CCOC(=O)C(NC(=O)c1cccc(Cl)c1)(N1CCN(c2cc3c(cc2F)c(=O)c(C(=O)O)cn3CC)CC1)C(F)(F)F (centres undefined),TGI,HOP-62 NSCLC,36.6 µM
same,TGI,OVCAR-4 ovarian,53 µM
same,TGI,NCI-H23 lung,42 µM
same,TGI,HCT-116 colon,27.6 µM
same,TGI,UACC-257 melanoma,54.9 µM
same,TGI,SK-MEL-2 melanoma,31.1 µM
same,TGI,DU-145 prostate,88.3 µM
same,TGI,UO-31 renal,46.6 µM
same,TGI,RPMI-8226 leukemia,62.8 µM
same,TGI,MDA-N,28.2 µM
same,TGI,OVCAR-8 ovarian,46.7 µM
same,TGI,HT29 colon,42.5 µM
same,TGI,SR leukemia,52.2 µM
same,TGI,CCRF-CEM leukemia,10.7 µM
same,TGI,OVCAR-3 ovarian,38.2 µM
same,TGI,HCT-15 colon,38.2 µM
same,TGI,OVCAR-5 ovarian,33 µM
same,TGI,T-47D breast,51.4 µM
same,TGI,MOLT-4 leukemia,19.3 µM
same,TGI,IGROV1 ovarian,47.6 µM
same,TGI,SK-MEL-28 melanoma,33.9 µM
same,TGI,HCC-2998 colon,27.5 µM
same,TGI,A549 NSCLC,64.2 µM
same,TGI,RXF 393 renal,39.4 µM
same,TGI,BT-549 breast,43.7 µM
same,TGI,COLO 205 colon,32 µM
same,TGI,MDA-MB-231 breast,36.3 µM
same,TGI,NCI/ADR-RES ovarian,> 100 µM
same,TGI,NCI-H522 lung,16.4 µM
same,TGI,EKVX NSCLC,68.3 µM
same,TGI,HL-60(TB) leukemia,20.1 µM
same,TGI,UACC-62 melanoma,32.4 µM
same,TGI,SNB-75 CNS,61.2 µM
same,TGI,NCI-H460 lung,81.2 µM
same,TGI,SK-MEL-5 melanoma,27.2 µM
same,TGI,SF-539 CNS,30.2 µM
same,TGI,LOX IMVI melanoma,48.7 µM
same,TGI,U251 CNS,20.9 µM
same,TGI,ACHN renal,32.9 µM
same,TGI,SF-268 CNS,35.3 µM
same,TGI,CAKI-1 renal,60.9 µM
same,TGI,MDA-MB-435,28 µM
same,TGI,SF-295 CNS,40 µM
same,TGI,HOP-92 NSCLC,33.4 µM
same,TGI,HS 578T breast,44.8 µM
same,TGI,NCI-H226 lung,40.1 µM
same,TGI,MALME-3M melanoma,32.4 µM
same,TGI,MCF7 breast,37.2 µM
same,TGI,KM12 colon,25.2 µM
same,TGI,M14 melanoma,31.9 µM
same,TGI,SN12C renal,70.9 µM
same,TGI,PC-3 prostate,35.1 µM
same,TGI,SK-OV-3 ovarian,64.2 µM
same,TGI,SNB-19 CNS,> 100 µM
same,TGI,786-0 renal,30.9 µM
same,TGI,SW-620 colon,29.4 µM
same,TGI,K-562 leukemia,52 µM
same,TGI,TK-10 renal,56.6 µM
same,TGI,A498 renal,51 µM
